# Columns and labels:
# Format in all cases: in vivo
# ICR mice [1] = experiment: Anti-epilepsy activity, MES test, mouse; settings: for ED50: po
# In short: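 Maximal electroshock delivered through corneal electrodes at 60 Hz for 0.2 s: 50 mA for male ICR mice (19–25 g), 150 mA for male SD rats (100–130 g). Compounds given orally in 30% PEG 400 or 20% Tween 80 in saline, tested at peak time, three doses per compound. ED50 for seizure protection derived by Litchfield–Wilcoxon log-probit analysis.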
# Sprague-Dawley rats [2] = experiment: Antiallodynic activity on Chung model (SNL, spinal nerve ligation); settings: orally; for ED50: Rattus norvegicus, po, at peak time
# Source text: Male Sprague-Dawley rats (100-130 g, Orient Bio, Korea) were habituated for 1 week before the experiment and allowed free access to food and water throughout the experimentation. Room temperature and humidity were maintained at 24±2 and 50±10%, respectively. The neuropathic surgery (SNL, Spinal nerve ligation) model was done as described in Kim and Chung (1992). Briefly, an animal was put under gaseous anesthesia with isoflurane. The left lumber spinal nerve L5 and L6 were isolated and tightly ligated with 6-0 silk thread. The wound muscle was closed with Catgut® chrom 3/0 thread and skin was closed with Dafilon 3/0 tread. Sham controls were prepared in the same manner with the spinal nerves exposed, but with no ligated L5 and L6 nerves. Preparation of the vehicle controls were identical to the group treated with compound, except for administration of vehicles without compound in the vehicle control group.
# Tactile sensitivity (Mechanical allodynia) was evaluated using von Frey monofilaments before and after treatment, and animals were included in the study only if the withdrawal threshold value was less than 4 g. One week after surgery, SNL-operated animals, sham-operated animals and vehicle control animals were tested for tactile sensitivity with von Frey monofilaments 3 trials in each animal. All Animals were placed in a stainless steel mash chamber and habituated for 30 min in the test cage. The tactile sensitivity for the ipsilateral hind paw was measured using the up-and-down method (Dixon, 1980) with seven von Frey monofilaments (0.4, 1, 2, 4, 6, 8, and 15 g) in 3 trials. The tactile sensitivity test was followed by Dixon's method (Dixon, 1980). The 50% paw withdrawal threshold for each paw was calculated using the following formula: [Xth] log=[vFr] log+ky where [vFr] is the force of the last von Frey used, k=0.2249 which is the average interval (in log units) between the von Frey monofilaments, and y is a value that depends upon the pattern of withdrawal responses (Dixon, 1980).
# All animals were fasted 18 h before the administration of the compounds. Antiallodynic effect of compounds were evaluated at the three dose, orally administrated in a volume of 5 ul/g, bw in a vehicle of 30% (v/v) PEG 400 or 20% (v/v) Tween 80. The test was performed at the peak time of efficacy after compound administration.
# The relative values compared to the sham group (% control) were calculated and shown in Table 3, which show an antiallodynic effect of the test compounds on SNL model in rats.
# Sprague-Dawley rats [3] = experiment: Lithium-pilocarpine induced epilepsy test, intervention; settings: Rattus norvegicus, iv, i.v. at SE onset, read-out: Lithium pilocarpine model(inter) ED50
# Method: Male Sprague-Dawley rats (purchased from Orient Bio Inc. Korea) of body weight 175 grams were used for these studies and 3 rats per cage were housed for 4-5 days. On the day prior to SE, rats received 127 mg/kg lithium chloride (Sigma, St. Louis, Mo., U.S.A.) intraperitoneally (i.p.). Approximately 18-20 h following this treatment, rats were given an i.p. injection of CD97 dose (30-43 mg/kg) pilocarpine (Sigma). An i.p. injection of 2 mg/kg methyl-scopolamine (Sigma) was administered 30 min prior to pilocarpine to block the effects of the muscarinic agonist on peripheral cholinergic receptors. Test drugs were dissolved in 20% tween80 (Sigma).
# The drugs were administered intravenously (i.v.) in a volume of 2 ul/g body weight at SE onset. Pharmacological effects of all of the test materials were evaluated to compare test groups (n=3-6) with a control group (n=3-6). Control group was administered vehicle only. The animals were then transferred to observation cages and observed continuously for 90 min. Seizure was elicited in approximately 95% of the control group. Protection was defined as complete absence of seizure grade 3-5 (Racine scale; Racine, 1972) over the 90-min observation period. The effective dose of the compound necessary to protect 50% of the animals against seizures compared to controls (i.e. ED50) was determined by a curve fitting program (Excel 2007, Microsoft).
# ICR mice [4] = experiment: Chemical induced seizure model (PIC, picrotoxin); settings: for ED50: Mus musculus, ip
# Method: Picrotoxin (PIC) were used to induce the behavioral seizures in the experiments. Male ICR mice (purchased from Orient Bio Inc. Korea) of body weight 19-26 g (mice) were used for these studies. The test materials were administered intraperitoneal (ip) route in a volume of 10 ul/g (mice) weight in mice, respectively. Pharmacological effects of the test materials were evaluated to compared test groups (n=6) with a control group (n=6). Control group was administrated vehicle, only. The peak time was determined by administration of test material's random dose for 0.5, 1, 2, 4 hour. The time that the most protect was defined as a peak time and ED50 was determined by other dose administration at the peak time. Chemical (PIC) was dissolved in 0.9% saline and administered subcutaneously (s.c.) at its CD97 (convulsive dose 97%), the dose of Chemical (PIC) that produced clonic seizures in 97% into a loose fold of skin in the midline of the neck in a volume of 10 ul/g (mice) body weight. The animals were then transferred to observation cages and observed continuously for 45 min (PIC). Clonic seizure was elicited in approximately 97% of control group. Protection was defined as a complete absence of clonic seizure over the 45-min observation period. The effective dose of compound necessary to protect against generalized convulsive seizures to 50% of controls (i.e. ED50) was determined by log probit analysis using SPSS software program (SPSS Inc.). (Reference; White H. S., J. H. Woodhead, K. S. Wilcox, J. P. Stables, H. J. Kupferberg, and H. H. Wolf. General Principles; Discovery and Preclinical De-velopment of Antiepileptic Drugs. In: R. H. Levy, R. H. Mattson, B. S. Meldrum, and E. Perucca, eds. Antiepileptic Drugs, 5th Ed. Lippincott Williams & Wilkins, Philadelphia 2002: pp. 36-48.) The obtained results are shown in following Table 10.
smiles,measurement,setting,value
"COCO[C@H](c1ccccc1Cl)[C@@H](C)OS(N)(=O)=O [Example 70, (1R, 2R)-1-(2-chlorophenyl)-1-(methoxymethoxy)propan-2-yl sulfamate]",MES test (po) Peak time,ICR mice [1],2 h
same,ED50,ICR mice [1],50.5 mg/kg
same,ED50,Sprague-Dawley rats [2],6.5 mg/kg
same,SNL Peak Time,Sprague-Dawley rats [2],1 h
"C[C@@H](OS(N)(=O)=O)[C@H](O)c1c(Cl)cccc1Cl [Example 8, (1R, 2R)-1-(2,6-dichlorophenyl)-1-hydroxypropan-2-yl sulfamate]",ED50,Sprague-Dawley rats [3],44.8 mg/kg
same,MES test (po) Peak time,ICR mice [1],2 h
same,ED50,ICR mice [1],27.9 mg/kg
same,ED50,Sprague-Dawley rats [2],35.3 mg/kg
same,SNL Peak Time,Sprague-Dawley rats [2],1 h
same,PIC(ip) Peak Time,ICR mice [4],1 h
same,ED50,ICR mice [4],73.9 mg/kg
"C[C@@H](OS(N)(=O)=O)[C@H](O)c1ccccc1Cl [Example 2, (1R, 2R)-1-(2-chlorophenyl)-1-hydroxypropan-2-yl sulfamate]",MES test (po) Peak time,ICR mice [1],2 h
same,ED50,ICR mice [1],22.8 mg/kg
same,SNL Peak Time,Sprague-Dawley rats [2],1 h
same,SNL efficacy %,Sprague-Dawley rats [2]; 30 mg/kg,30(38.6%)
same,PIC(ip) Peak Time,ICR mice [4],1 h
same,ED50,ICR mice [4],24.1 mg/kg
"C[C@H](OS(N)(=O)=O)[C@@H](O)c1c(Cl)cccc1Cl [Example 7, (1S, 2S)-1-(2,6-dichlorophenyl)-1-hydroxypropan-2-yl sulfamate]",ED50,Sprague-Dawley rats [3],23.3 mg/kg
same,MES test (po) Peak time,ICR mice [1],1 h
same,ED50,ICR mice [1],40.7 mg/kg
same,ED50,Sprague-Dawley rats [2],4.4 mg/kg
same,SNL Peak Time,Sprague-Dawley rats [2],0.5 h
same,PIC(ip) Peak Time,ICR mice [4],0.5 h
same,ED50,ICR mice [4],28.5 mg/kg

# Source: patent US10351519B2, “Sulfamate derivative compounds, processes for preparing them and their uses” (BIO-PHARM SOLUTIONS CO., LTD., priority 2016, dated 2019)
